The subject of the assay is LXRα and/or LXRβ. The assay can be described thus: Co-transfection assay (LXRE luciferase reporter, CV-1 cells). Format: cell-based, human. Conditions: tested as described in Example 33; IC50 or EC50 for LXRα and/or LXRβ, isoform not specified; read-out: activity (IC50 or EC50 for LXR). Summed up: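 CV-1 cells transiently co-transfected with full-length human LXRα or LXRβ plus RXRα, an LXRE×1-Tk-luciferase reporter and a β-galactosidase control. Compounds incubated 20 h at 37 °C (≤1% DMSO; screen at 10 μM final); luciferase read after lysis. EC50/IC50 from 8-point half-log curves (4 wells per point, ≥3 experiments); efficacy relative to a reference agonist high control and DMSO.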
Background: In a reporter assay the amount or activity of a reporter protein is the signal.

Regarding `CC(C)(O)c1cn(-c2ccc(Br)cc2)c(-c2ccccc2C(F)(F)F)n1` [Example 374, 2-{1-(4-bromophenyl)-2-[2-(trifluoromethyl)phenyl]-1H-imidazol-4-yl}propan-2-ol], the IC50 or EC50 (potency, activation or inhibition) fell in the range of 1000 to 10000 nM.

For `CS(=O)(=O)Nc1cccc(-c2ccc(-n3cc(C(F)(F)F)nc3-c3ccccc3C(F)(F)F)cc2)c1` [Example 375, N-(4′-{4-(trifluoromethyl)-2-[2-(trifluoromethyl)phenyl]-1H-imidazol-1-yl}biphenyl-3-yl)methane-sulfonamide], the IC50 or EC50 (potency, activation or inhibition) is less than 1000 nM.

`CCOC(=O)c1cn(-c2ccc(-c3cccc(S(C)(=O)=O)c3)cc2)c(-c2ccccc2)n1` [Example 376, ethyl 1-[3′-(methylsulfonyl)biphenyl-4-yl]-2-phenyl-1H-imidazole-4-carboxylate]: the IC50 or EC50 (potency, activation or inhibition) was less than 1000 nM.

For the molecule `CCOC(=O)c1cn(-c2ccc(Br)cc2)c(-c2ccccc2Cl)n1` [Example 377, ethyl 1-(4-bromophenyl)-2-(2-chlorophenyl)-1H-imidazole-4-carboxylate], the IC50 or EC50 (potency, activation or inhibition) fell in the range of 1000 to 10000 nM.

In the case of `CC(C)(O)c1cn(-c2ccc(-c3cccc(S(C)(=O)=O)c3)cc2)c(-c2ccccc2)n1` [Example 378, 2-{1-[3′-(methylsulfonyl)biphenyl-4-yl]-2-phenyl-1H-imidazole-4-yl}propan-2-ol], the IC50 or EC50 (potency, activation or inhibition) is 1000 to 10000 nM.

Regarding `CC(C)(O)c1cn(-c2ccc(-c3cccc(S(C)(=O)=O)c3)cc2)c(-c2ccccc2Cl)n1` [Example 379, 2-{2-(2-chlorophenyl)-1-[3′-(methylsulfonyl)biphenyl-4-yl]-1H-imidazol-4-yl}propan-2-ol], the IC50 or EC50 (potency, activation or inhibition) was less than 1000 nM.

Consider `CC(C)(O)c1cn(-c2ccc(-c3cccc(S(C)(=O)=O)c3)cc2)c(-c2ccccc2F)n1` [Example 380, 2-{2-(2-fluorophenyl)-1-[3′-(methylsulfonyl)biphenyl-4-yl]-1H-imidazol-4-yl}propan-2-ol], for which the IC50 or EC50 (potency, activation or inhibition) was 1000 to 10000 nM.

Regarding `CC(=O)c1cn(-c2ccc(-c3cccc(S(C)(=O)=O)c3)cc2)c(-c2ccccc2F)n1` [Example 381, 1-{2-(2-fluorophenyl)-1-[3′-(methylsulfonyl)biphenyl-4-yl]-1H-imidazol-4-yl}ethanone], the IC50 or EC50 (potency, activation or inhibition) fell in the range of 1000 to 10000 nM.

For the molecule `CC(C)(O)c1cn(-c2ccc(-c3cccc(S(C)(=O)=O)c3)cc2)c(-c2cccc(Cl)c2Cl)n1` [Example 382, 2-{2-(2,3-dichlorophenyl)-1-[3′-(methylsulfonyl)biphenyl-4-yl]-1H-imidazol-4-yl}propan-2-ol], the IC50 or EC50 (potency, activation or inhibition) is less than 1000 nM.

For `CC(C)(O)c1cn(-c2ccc(-c3cccc(S(C)(=O)=O)c3)cc2)c(-c2cccc(F)c2Cl)n1` [Example 383, 2-{2-(2-chloro-3-fluorophenyl)-1-[3′-(methylsulfonyl)biphenyl-4-yl]-1H-imidazol-4-yl}propan-2-ol], the IC50 or EC50 (potency, activation or inhibition) was less than 1000 nM.

For `CC(C)(O)c1cn(-c2ccc(-c3cccc(S(N)(=O)=O)c3)cc2)c(-c2ccccc2Cl)n1` [Example 384, 4′-[2-(2-chlorophenyl)-4-(1-hydroxy-1-methylethyl)-1H-imidazol-1-yl]biphenyl-3-sulfonamide], the IC50 or EC50 (potency, activation or inhibition) lay within 1000 to 10000 nM.

On to `CC(C)(O)c1cn(-c2ccc(-c3cccc(S(C)(=O)=O)c3)cc2)c(-c2ccc(F)cc2)n1` [Example 385, 2-{2-(4-fluorophenyl)-1-[3′-(methylsulfonyl)biphenyl-4-yl]-1H-imidazol-4-yl}propan-2-ol], for which the IC50 or EC50 (potency, activation or inhibition) is 1000 to 10000 nM.

With `CC(C)(O)c1cn(-c2ccc(-c3cccc(S(C)(=O)=O)c3)cc2F)c(-c2ccccc2Cl)n1` [Example 386, 2-{2-(2-chlorophenyl)-1-[3-fluoro-3′-(methylsulfonyl)biphenyl-4-yl]-1H-imidazol-4-yl}propan-2-ol], the IC50 or EC50 (potency, activation or inhibition) is less than 1000 nM.

Turning to `CC(C)(O)c1cn(-c2ccc(-c3cccc(S(C)(=O)=O)c3)c(F)c2)c(-c2ccccc2Cl)n1` [Example 387, 2-{2-(2-chlorophenyl)-1-[2-fluoro-3′-(methylsulfonyl)biphenyl-4-yl]-1H-imidazol-4-yl}propan-2-ol], the IC50 or EC50 (potency, activation or inhibition) lay in the range of 1000 to 10000 nM.

For `CC(C)c1cccc(-c2ccc(-n3cc(C(C)(C)O)nc3-c3ccccc3Cl)cc2)c1` [Example 388], the IC50 or EC50 (potency, activation or inhibition) lay within 1000 to 10000 nM.

In the case of `CC(C)(C)c1ccc(-c2ccc(-n3cc(C(C)(C)O)nc3-c3ccccc3Cl)cc2)cc1` [Example 389, 2-{2-(2-chlorophenyl)-1-[4′-(1,1-dimethylethyl)biphenyl-4-yl]-1H-imidazol-4-yl}propan-2-ol], the IC50 or EC50 (potency, activation or inhibition) lay within 1000 to 10000 nM.

In the case of `COC(=O)c1cccc(-c2ccc(-n3cc(C(C)(C)O)nc3-c3ccccc3Cl)cc2)c1` [Example 390, methyl 4′-[2-(2-chlorophenyl)-4-(1-hydroxy-1-methylethyl)-1H-imidazol-1-yl]biphenyl-3-carboxylate], the IC50 or EC50 (potency, activation or inhibition) fell in the range of 1000 to 10000 nM.

Take `CC(C)(O)c1cn(-c2ccc(-c3cccc(NC(=O)c4ccc5c(c4)OCO5)c3)cc2)c(-c2ccccc2Cl)n1` [Example 391, N-{4′-[2-(2-chlorophenyl)-4-(1-hydroxy-1-methylethyl)-1H-imidazol-1-yl]biphenyl-3-yl}-1,3-benzodioxole-5-carboxamide]: the IC50 or EC50 (potency, activation or inhibition) lay in the range of 1000 to 10000 nM.

With `CC(C)(O)c1cn(-c2ccc(-c3cccc(S(C)(=O)=O)c3)cc2)c(-c2cccc(C(F)(F)F)c2)n1` [Example 392, 2-{1-[3′-(methylsulfonyl)biphenyl-4-yl]-2-[3-(trifluoromethyl)phenyl]-1H-imidazol-4-yl}propan-2-ol], the IC50 or EC50 (potency, activation or inhibition) is less than 1000 nM.

As to `CC(C)(O)c1cn(-c2ccc(-c3cccc(S(C)(=O)=O)c3)cc2)c(-c2cccc(Cl)c2)n1` [Example 393, 2-{2-(3-chlorophenyl)-1-[3′-(methyl-sulfonyl)biphenyl-4-yl]-1H-imidazol-4-yl}propan-2-ol], the IC50 or EC50 (potency, activation or inhibition) was less than 1000 nM.

As for `Cc1cccc(Cl)c1-c1nc(C(C)(C)O)cn1-c1ccc(-c2cccc(S(C)(=O)=O)c2)cc1` [Example 394, 2-{2-(2-chloro-6-methylphenyl)-1-[3′-(methylsulfonyl)biphenyl-4-yl]-1H-imidazol-4-yl}propan-2-ol], the IC50 or EC50 (potency, activation or inhibition) is less than 1000 nM.

With `CC(C)(O)c1cn(-c2ccc(-c3cccc(C(=O)O)c3)cc2)c(-c2ccccc2Cl)n1` [Example 395, 4′-[2-(2-chlorophenyl)-4-(1-hydroxy-1-methylethyl)-1H-imidazol-1-yl]biphenyl-3-carboxylic acid], the IC50 or EC50 (potency, activation or inhibition) lay within 1000 to 10000 nM.

For the molecule `FC(F)(F)CNC(=S)c1cn(-c2ccc(Br)cc2)c(-c2ccccc2Cl)n1` [Example 396, 1-(4-bromophenyl)-2-(2-chlorophenyl)-N-(2,2,2-trifluoroethyl)-1H-imidazole-4-carbothioamide], the IC50 or EC50 (potency, activation or inhibition) was 1000 to 10000 nM.

As for `CS(=O)(=O)c1cccc(-c2ccc(-n3cc(C(=O)NCC(F)(F)F)nc3-c3ccccc3Cl)cc2)c1` [Example 397, 2-(2-chlorophenyl)-1-[3′-(methyl-sulfonyl)biphenyl-4-yl]-N-(2,2,2-trifluoroethyl)-1H-imidazole-4-carboxamide], the IC50 or EC50 (potency, activation or inhibition) was less than 1000 nM.

For the molecule `CS(=O)(=O)c1cccc(-c2ccc(-n3cc(C(=S)NCC(F)(F)F)nc3-c3ccccc3Cl)cc2)c1` [Example 398, 2-(2-chlorophenyl)-1-[3′-(methyl-sulfonyl)biphenyl-4-yl]-N-(2,2,2-trifluoroethyl)-1H-imidazole-4-carbothioamide], the IC50 or EC50 (potency, activation or inhibition) was less than 1000 nM.

As for `COc1ccc(-c2ccc(-n3cc(C(C)(C)O)nc3-c3ccccc3C(F)(F)F)cc2)cc1S(C)(=O)=O` [Example 399, 2-{1-[4′-(methyloxy)-3′-(methyl-sulfonyl)biphenyl-4-yl]-2-[2-(trifluoromethyl)phenyl]-1H-imidazol-4-yl}propan-2-ol], the IC50 or EC50 (potency, activation or inhibition) fell in the range of 1000 to 10000 nM.

Consider `CC(C)(O)c1cn(-c2ccc(-c3ccc(CO)c(S(C)(=O)=O)c3)cc2)c(-c2ccccc2C(F)(F)F)n1` [Example 400, 2-{1-[4′-(hydroxymethyl)-3′-(methylsulfonyl)biphenyl-4-yl]-2-[2-(trifluoromethyl)phenyl]-1H-imidazol-4-yl}propan-2-ol], for which the IC50 or EC50 (potency, activation or inhibition) is less than 1000 nM.

With `CCOC(=O)c1cc(-c2ccc(-n3cc(C(C)(C)O)nc3-c3ccccc3C(F)(F)F)cc2)cc(S(C)(=O)=O)c1` [Example 401, ethyl 4′-{4-(1-hydroxy-1-methylethyl)-2-[2-(trifluoro-methyl)phenyl]-1H-imidazol-1-yl}-5-(methylsulfonyl)biphenyl-3-carboxylate], the IC50 or EC50 (potency, activation or inhibition) is 1000 to 10000 nM.

Turning to `CC(C)(O)c1nc(-c2ccccc2C(F)(F)F)n(-c2ccc(-c3cccc(S(C)(=O)=O)c3)cc2)c1Br` [Example 402, 2-{5-bromo-1-[3′-(methyl-sulfonyl)biphenyl-4-yl]-2-[2-(trifluoro-methyl)phenyl]-1H-imidazol-4-yl}propan-2-ol], the IC50 or EC50 (potency, activation or inhibition) is less than 1000 nM.

In the case of `CC(C)(O)c1nc(-c2ccccc2C(F)(F)F)n(-c2ccc(-c3cccc(S(C)(=O)=O)c3)cc2)c1Cl` [Example 403, 2-{5-chloro-1-[3′-(methyl-sulfonyl)biphenyl-4-yl]-2-[2-(trifluoro-methyl)phenyl]-1H-imidazol-4-yl}propan-2-ol], the IC50 or EC50 (potency, activation or inhibition) was less than 1000 nM.

For the molecule `CC(C)(O)c1cn(-c2ccc(-c3cccc(N)c3)cc2)c(-c2ccccc2Cl)n1` [Example 405, 2-[1-(3′-aminobiphenyl-4-yl)-2-(2-chlorophenyl)-1H-imidazol-4-yl]propan-2-ol], the IC50 or EC50 (potency, activation or inhibition) lay in the range of 1000 to 10000 nM.

The record behind these values is US9000022B2 (Exelixis Patent Company LLC, priority 2005, dated 2015).
